Assay: xn = mol fraction of the nth substance listed
Conditions: 101.3 kPa, Liquid, Taylor dispersion method

C1CCCCC1 [cyclohexane] + CCCO
298.15 K
Conditions	binary diffusion coefficient [m2/s]
x2 = 0.03	8.3e-10
x2 = 0.1	6.6e-10
x2 = 0.3	3.9e-10
x2 = 0.5	4.2e-10
x2 = 0.7	6.5e-10
x2 = 0.9	1e-09
x2 = 0.97	1.15e-09

C1CCCCC1 [cyclohexane] + CCO
298.15 K
Conditions	binary diffusion coefficient [m2/s]
x2 = 0.03	9.9e-10
x2 = 0.1	7.7e-10
x2 = 0.3	4.3e-10
x2 = 0.5	4.6e-10
x2 = 0.7	7.3e-10
x2 = 0.9	1.23e-09
x2 = 0.97	1.41e-09

CCO [ethanol] + O
298.15 K
Conditions	binary diffusion coefficient [m2/s]
x1 = 0.1	7e-10
x1 = 0.2	4.1e-10
x1 = 0.3	3.8e-10
x1 = 0.5	5.1e-10
x1 = 0.7	7.6e-10
x1 = 0.9	1.08e-09

CCCCCC [hexane] + CCCO
298.15 K
Conditions	binary diffusion coefficient [m2/s]
x2 = 0	5.2e-09
x2 = 0.03	3.37e-09
x2 = 0.1	2.17e-09
x2 = 0.3	1.38e-09
x2 = 0.5	1.15e-09
x2 = 0.7	1.08e-09
x2 = 0.9	1.09e-09
x2 = 0.97	1.03e-09
x2 = 1	1.02e-09

CCCCCC [hexane] + CCO
298.15 K
Conditions	binary diffusion coefficient [m2/s]
x2 = 0	5.74e-09
x2 = 0.03	4.07e-09
x2 = 0.1	2.41e-09
x2 = 0.3	1.54e-09
x2 = 0.5	1.3e-09
x2 = 0.7	1.3e-09
x2 = 0.9	1.43e-09
x2 = 0.97	1.54e-09
x2 = 1	1.6e-09

CO [methanol] + O
298.15 K
Conditions	binary diffusion coefficient [m2/s]
x1 = 0	1.57e-09
x1 = 0.1	1.22e-09
x1 = 0.3	9.5e-10
x1 = 0.5	1.03e-09
x1 = 0.7	1.37e-09
x1 = 0.9	1.87e-09
x1 = 0.97	2.05e-09

ClC(Cl)(Cl)Cl [tetrachloromethane] + CCCCO
binary diffusion coefficient [m2/s]
Conditions	x2 = 0	x2 = 0.03	x2 = 0.1	x2 = 0.3	x2 = 0.5	x2 = 0.7	x2 = 0.9	x2 = 0.97	x2 = 1
298.15 K	1.47e-09	7e-10	5e-10	2.9e-10	3.2e-10	5.4e-10	6.5e-10	6.9e-10	7.2e-10
308.15 K	1.74e-09	9.3e-10	7.1e-10	5.2e-10	5.6e-10	6.5e-10	8e-10	8.9e-10	9.4e-10

ClC(Cl)(Cl)Cl [tetrachloromethane] + CCCO
298.15 K
Conditions	binary diffusion coefficient [m2/s]
x2 = 0	1.61e-09
x2 = 0.03	8.3e-10
x2 = 0.1	6.1e-10
x2 = 0.3	3.9e-10
x2 = 0.5	4.6e-10
x2 = 0.7	6.6e-10
x2 = 0.9	8.3e-10
x2 = 0.97	9.1e-10
x2 = 1	9.5e-10

ClC(Cl)(Cl)Cl [tetrachloromethane] + CCO
binary diffusion coefficient [m2/s]
Conditions	x2 = 0	x2 = 0.03	x2 = 0.1	x2 = 0.3	x2 = 0.5	x2 = 0.7	x2 = 0.9	x2 = 0.97	x2 = 1
298.15 K	1.9e-09	1.06e-09	8.2e-10	6.4e-10	7.3e-10	9.9e-10	1.32e-09	1.43e-09	1.47e-09
303.15 K	2.15e-09	1.6e-09	9.9e-10	8.3e-10	8.7e-10	1.14e-09	1.45e-09	1.56e-09	1.61e-09
308.15 K	2.24e-09	1.8e-09	1.1e-09	9.5e-10	9.9e-10	1.28e-09	1.6e-09	1.76e-09	1.82e-09

Cc1ccccc1 [toluene] + CCCO
298.15 K
Conditions	binary diffusion coefficient [m2/s]
x2 = 0	2.67e-09
x2 = 0.03	2.37e-09
x2 = 0.1	1.81e-09
x2 = 0.3	1e-09
x2 = 0.5	8.5e-10
x2 = 0.7	1.01e-09
x2 = 0.9	1.28e-09
x2 = 0.97	1.4e-09
x2 = 1	1.46e-09

Cc1ccccc1 [toluene] + CCO
binary diffusion coefficient [m2/s]
Conditions	x2 = 0	x2 = 0.03	x2 = 0.1	x2 = 0.3	x2 = 0.5	x2 = 0.7	x2 = 0.9	x2 = 0.97	x2 = 1
298.15 K	3.12e-09	2.94e-09	2.41e-09	1.22e-09	9.8e-10	1.16e-09	1.55e-09	1.7e-09	1.74e-09
308.15 K	3.61e-09	3.4e-09	2.9e-09	1.7e-09	1.35e-09	1.59e-09	1.89e-09	2.04e-09	2.11e-09
